{"source": "PubChem BioAssay (NCI)", "assay_in_all_cases": "inhibition of tumour cell growth, NCI panel, 48 h", "key": {"KM20L2 colon": {"tested_on": "KM20L2 colon"}, "XF 498 CNS": {"tested_on": "XF 498 CNS"}, "RXF-631 renal": {"tested_on": "RXF-631 renal"}, "SNB-78 CNS": {"tested_on": "SNB-78 CNS"}, "DMS 114 small cell lung": {"tested_on": "DMS 114 small cell lung"}, "M19-MEL melanoma": {"tested_on": "M19-MEL melanoma"}, "HOP-18 NSCLC": {"tested_on": "HOP-18 NSCLC"}}, "note": "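Each compound was tested at five concentrations against cells in 96-well plates for 48 hours. TGI: concentration producing complete growth inhibition.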", "data": [{"molecule": "COc1ccc(CNc2cc(OC)c(OC)c(OC)c2)cc1", "values": [{"measurement": "TGI", "setting": "KM20L2 colon", "value": "> 23.7", "unit": "µM"}, {"measurement": "TGI", "setting": "XF 498 CNS", "value": "> 100", "unit": "µM"}, {"measurement": "TGI", "setting": "RXF-631 renal", "value": "> 100", "unit": "µM"}, {"measurement": "TGI", "setting": "SNB-78 CNS", "value": 32.9, "unit": "µM"}, {"measurement": "TGI", "setting": "DMS 114 small cell lung", "value": 9.19, "unit": "µM"}, {"measurement": "TGI", "setting": "M19-MEL melanoma", "value": "> 100", "unit": "µM"}, {"measurement": "TGI", "setting": "HOP-18 NSCLC", "value": "> 94.6", "unit": "µM"}]}]}
